Key:
[1] = Sweetness detection threshold level in water, multi-sip and swallow taste method; type: in vivo, human; details: for Sweetness Detection Threshold Level: in water at room temperature
Source text: As used herein, the terms “sweetness threshold,” “sweetness recognition threshold,” and “sweetness detection threshold” are understood to mean the level at which the lowest known concentration of a certain sweet compound that is perceivable by the human sense of taste and it can vary from person to person. For example, a typical sweetness threshold level for sucrose in water can be 0.5%.
Further for example, the at least one sweetness enhancer to be used can be assayed in water at least 25% lower and at least 25% higher than the sucrose detection level of 0.5% in water to determine the sweetness threshold level.
(§1) A first sip (approximately 2.2 mL) of a ca. 20 mL control composition was taken and swallowed. After waiting for a time ranging from 15 to 25 seconds, a second sip of control composition was taken and swallowed, and the sweetness and/or taste of the control composition was noted. After waiting for a time ranging from 15 to 25 seconds, these steps were repeated with a comparative composition. The sweetness and taste differences between the control and the comparative composition were noted. For each tested composition, this cycle was repeated once to confirm the initial findings. All samples were measured at average 23.0° C.±1° C. between samples for consistent comparison and to minimize any effects of temperature on the perceived taste or sweetness of the composition.
(§2) To perform the taste test, three sweetener samples were paired with one additive and taste tested as described above. A three minute break was taken before tasting another three sweetener samples paired with a different additive. Up to 10 additives per day were used to minimize a fatigue factor. Before tasting, at least 1.5 hours elapsed after ingestion of any food, drink or nicotine. The tests were repeated on a different date to validate the initial findings.
The sweetness detection threshold levels for 21 entities were measured by a single assessor in water at room temperature according to the multi-sip and swallow taste method described herein.

[2] = Sweetness enhancement of glucose, fructose or sucrose at 6% SE in water by additive at its threshold level; type: in vivo, human; design: key: T: Slight thicker-like sweetness (not intensity factor).; No difference; N(S+): No difference but slightly more sweet (0.5-0.75%); +S: More sweetness intensity (~1.0% SE); ++S: Much more sweetness intensity (~2.0% SE); details: room temperature, additive at its Table 1 threshold level; for Sensory result versus FRU 55,000 ppm: fructose at 6% SE in water; for Sensory result versus GLU 99,000 ppm: glucose at 6% SE in water; for Sensory result versus SUC 60,000 ppm: sucrose at 6% SE in water
Description: as §1, §2
The twenty-one entities above were combined in a concentration at the sweetness detection threshold level listed in Table 1, with one of Glucose (GLU), Fructose (FRU), and Sucrose (SUG), each at a fixed SE (Sucrose Equivalents) level of 6%. The sweetness of the compositions was measured as described above at room temperature.

[3] = By-products of 500 ppm REB A after two months of storage in phosphoric acid at RT; type: physicochemical; details: approximated concentration of by-product of 500 ppm REB A
[4] = value is min. off-taste threshold

Compound | Sweetness Detection Threshold Level [1, 4] [ppm] | Sensory result versus FRU 55,000 ppm [2] | Sensory result versus GLU 99,000 ppm [2] | Sensory result versus SUC 60,000 ppm [2] | Levels After 2 Month of Storage [3] [ppm] | Sweetness Threshold Level ([1]; in water at RT, value is max. level for solubility) [ppm] | Sweetness Detection Threshold Level ([1]; value is max. level for solubility) [ppm] | Sweetness Detection Threshold Level ([1]; single assessor) [ppm] | Sweetness Threshold Level ([1]; estimation sweetness/off-taste threshold in water at room temperature (RT)) [ppm]
C[C@@]12CC[C@@H]3[C@@](CC[C@H]4[C@@]3(C)CCC[C@@]4(C)C(=O)OC3OC(CO)C(O)C(O)C3O)(CC1=O)C2 (stereo partly drawn) [13-methyl-16-oxo-17-norkauran-18-oic acid β-D-glucopyranosyl ester] | 15 | N | N | N | – | – | – | – | –
CC1(C(=O)O)CCCC2(C)C3CCC4(OC5OC(CO)C(O)C(OC6OC(CO)C(O)C(O)C6O)C5OC5OC(CO)C(O)C(O)C5O)CC3(CCC12)CC4(C)O [13-[(2-O-β-D-glucopyranosyl-3-O-β-D-glucopyranosyl-β-D-glucopyranosyl)oxy]-16-hydroxy kauran-18-oic acid] | – | N | N | N | 33 | 500 | 500 | – | –
C=C1C[C@@]23CC[C@H]4[C@@](C)(CCC[C@@]4(C)C(=O)OC4OC(C(=O)O)C(O)C(O)C4O)[C@@H]2CC[C@]1(O)C3 (stereo partly shown) [Steviol glucuronide] | – | N | N | N | – | – | – | 85 | –
CC1=CC23CCC4C(C)(C(=O)O)CCCC4(C)C2CCC1(OC1OC(CO)C(O)C(OC2OC(CO)C(O)C(O)C2O)C1OC1OC(CO)C(O)C(O)C1O)C3 [13-[(2-O-β-D-glucopyranosyl-3-O-β-D-glucopyranosyl-β-D-glucopyranosyl)oxy] kaur-15-en-18-oic acid] | – | N | N | N | 1 | – | – | 35 | 35
C=C1C[C@@]23CC[C@H]4[C@@](C)(CCC[C@@]4(C)C(=O)O)[C@@H]2CC[C@]1(O[C@@H]1O[C@H](CO)[C@@H](O)[C@H](O)[C@H]1O[C@@H]1O[C@H](CO)[C@@H](O)[C@H](O)[C@H]1O)C3 [Steviolbioside] | – | N | N | N | – | – | – | 50 | –
Rebaudioside F | – | N | N | N(S+) (No difference but slightly more sweet (0.5-0.75%)) | – | – | – | 25 | –
C=C1C[C@@]23CC[C@H]4[C@@](C)(CCC[C@@]4(C)C(=O)O[C@@H]4O[C@H](CO)[C@@H](O)[C@H](O)[C@H]4O)[C@@H]2CC[C@]1(O[C@@H]1O[C@H](CO)[C@@H](O)[C@H](O[C@@H]2O[C@H](CO)[C@@H](O)[C@H](O)[C@H]2O)[C@H]1O)C3 [13-[(3-O-β-D-glucopyranosyl-β-D-glucopyranosyl)oxy] kaur-16-en-18-oic acid β-D-glucopyranosyl ester] | – | N | N | N | – | – | – | 35 | –
C=C1C[C@@]23CC[C@H]4[C@@](C)(CCC[C@@]4(C)C(=O)O[C@@H]4O[C@H](CO)[C@@H](O)[C@H](O)[C@H]4O)[C@@H]2CC[C@]1(O[C@@H]1O[C@H](CO)[C@@H](O)[C@H](O)[C@H]1O[C@@H]1O[C@@H](C)[C@H](O)[C@@H](O)[C@H]1O)C3 [Dulcoside A] | – | N | N | N | – | – | – | 50 | –
CC1=CC23CCC4C(C)(C(=O)OC5OC(CO)C(O)C(O)C5O)CCCC4(C)C2CCC1(OC1OC(CO)C(O)C(OC2OC(CO)C(O)C(O)C2O)C1OC1OC(CO)C(O)C(O)C1O)C3 [13-[(2-O-β-D-glucopyranosyl-3-O-β-D-glucopyranosyl-β-D-glucopyranosyl)oxy] kaur-15-en-18-oic acid β-D-glucopyranosyl ester] | – | N(S+) (No difference but slightly more sweet (0.5-0.75%)) | N | N(S+) (No difference but slightly more sweet (0.5-0.75%)) | – | – | – | 25 | –
C=C1CC23CCC4C(C)(C(=O)OC5OC(CO)C(O)C(O)C5O)CCCC4(C)C2CCC1(O)C3 [13-hydroxy-kaur-16-en-18-oic acid β-D-glucopyranosyl ester] | 10 | N | N | N | – | – | – | – | –
C[C@H](CC[C@@H](O[C@@H]1O[C@H](CO[C@@H]2O[C@H](CO)[C@@H](O)[C@H](O)[C@H]2O)[C@@H](O)[C@H](O)[C@H]1O[C@@H]1O[C@H](CO)[C@@H](O)[C@H](O)[C@H]1O)C(C)(C)O)[C@H]1CC[C@@]2(C)[C@@H]3CC=C4[C@@H](CC[C@H](O[C@@H]5O[C@H](CO[C@@H]6O[C@H](CO)[C@@H](O)[C@H](O)[C@H]6O)[C@@H](O)[C@H](O)[C@H]5O)C4(C)C)[C@]3(C)[C@H](O)C[C@]12C [Mogroside V] | – | N | N | N | – | – | – | 20 | –
C=C1C[C@@]23CC[C@H]4[C@@](C)(CCC[C@@]4(C)C(=O)O[C@@H]4O[C@H](CO)[C@@H](O)[C@H](O)[C@H]4O)[C@@H]2CC[C@]1(O[C@@H]1O[C@H](CO)[C@@H](O)[C@H](O[C@@H]2O[C@H](CO)[C@@H](O)[C@H](O)[C@H]2O)[C@H]1O[C@@H]1O[C@H](CO)[C@@H](O)[C@H](O)[C@H]1O)C3 [Rebaudioside A] | – | N | N | N | – | – | – | 12.6 | –
C=C1C[C@@]23CC[C@H]4[C@@](C)(CCC[C@@]4(C)C(=O)O[C@@H]4O[C@H](CO)[C@@H](O)[C@H](O)[C@H]4O[C@@H]4O[C@H](CO)[C@@H](O)[C@H](O)[C@H]4O)[C@@H]2CC[C@]1(O[C@@H]1O[C@H](CO)[C@@H](O)[C@H](O[C@@H]2O[C@H](CO)[C@@H](O)[C@H](O)[C@H]2O)[C@H]1O[C@@H]1O[C@H](CO)[C@@H](O)[C@H](O)[C@H]1O)C3 [Rebaudioside D] | – | N | N | N(S+) (No difference but slightly more sweet (0.5-0.75%)) | – | – | – | 25 | –
C=C1C[C@@]23CC[C@H]4[C@@](C)(CCC[C@@]4(C)C(=O)O[C@@H]4O[C@H](CO)[C@@H](O)[C@H](O)[C@H]4O)[C@@H]2CC[C@]1(O[C@@H]1O[C@H](CO)[C@@H](O)[C@H](O)[C@H]1O[C@@H]1O[C@H](CO)[C@@H](O)[C@H](O)[C@H]1O)C3 [Stevioside] | – | N | N | N | – | – | – | 25 | –
C=C1C[C@@]23CC[C@H]4[C@@](C)(CCC[C@@]4(C)C(=O)O[C@@H]4O[C@H](CO)[C@@H](O)[C@H](O)[C@H]4O)[C@@H]2CC[C@]1(O[C@@H]1O[C@H](CO)[C@@H](O)[C@H](O[C@@H]2O[C@H](CO)[C@@H](O[C@H]4O[C@H](CO)[C@@H](O)[C@H](O)[C@H]4O)[C@H](O)[C@H]2O)[C@H]1O[C@@H]1O[C@H](CO)[C@@H](O)[C@H](O)[C@H]1O)C3 [13-[(2-O-β-D-glucopyranosyl-3-O-(4-O-α-D-glucopyranosyl)-β-D-glucopyranosyl-β-D-glucopyranosyl)oxy] kaur-16-en-18-oic acid β-D-glucopyranosyl ester] | – | T | T | N | – | – | – | 50 | –

From US20110160311A1, “Sweetness Enhancers, Compositions Thereof, and Methods for Use” (The Coca-Cola Company, priority 2009, published 2011)
